Test results published in patent publication US11026914B2 (DelMar Pharmaceuticals, Inc., priority 2013, dated 2021).
Read-outs that look alike come from different tables or passages of the source.

Columns and labels:
GBM = settings: cited from earlier work
[1] = system: GBM cell lines SF188, U251, and T98G; assay: Inhibition of tumor cell growth in GBM cell lines (FIG. 1, FIG. 6); format: cell-based, human; settings: independent of MGMT
[2] = system: progressive secondary brain tumor; assay: Phase I/II dose-escalation study: tumor response in progressive secondary brain tumor patients; format: in vivo, human; settings: n = 6
Excerpt: (2) There is evidence of leptomeningeal spread of disease.
Outcomes analysis of cohort 6 is ongoing.

[3] = system: intracranial U251 human glioma tumors
Excerpt: However, TMZ-resistance has emerged as a significant unmet medical need, as DNA repair enzyme O^6-methylguanine DNA methyltransferase (MGMT) removes the methyl-group adducts caused by TMZ. […] We thus sought to investigate how our CSC and non-CSC panel would respond to VAL-083 alone or in combination with XRT. We further investigated the activity of VAL-083 in in vivo models of drug-resistant GBM in comparison to TMZ. Rag2 mice bearing intracranial human GBM xenograft tumors of either MGMT-positive and TMZ-resistant origin (BT74), or MGMT-negative and TMZ-sensitive origin (U251) were treated. VAL-083 was given i.p. 3 times/week×3 weeks, and the efficacy of VAL-083 in controlling tumor growth compared to TMZ (30 mg/kg). Disease progression was evaluated by overall survival, clinical observations and body weight measurements.
On study day 0 for each set of mice, 44 female Rag2 mice were inoculated intracranially in the right caudate-putamen nucleus (coordinates: ML-1.5 mm; AP 1 mm; DV −3.5 mm) with 7.5×10^4 U251 human glioma cells.

[4] = system: recurrent glioblastoma multiforme (GBM); assay: Phase I/II dose-escalation study: tumor response (RANO) in recurrent GBM patients
Excerpt: (§1) The study utilizes a 3+3 dose escalation design, until the MTD or the maximum specified dose is reached. […] In Phase II, additional patients will be treated at the MTD (or other selected optimum Phase II dose) to measure tumor responses. […] For these studies, the following is a summary of the inclusion criteria: (1) Patients must be greater than or equal to 18 years old. […] The following is a summary of the exclusion criteria: (1) There is a current history of neoplasm other than the entry diagnosis. Patients with previous cancers treated and cured with local therapy alone may be considered. (2) There is evidence of leptomeningeal spread of disease.
Higher doses may be enrolled subject to completion of mandated safety observation period with Cohort 6 (30 mg/m^2). Patients enrolled present with refractory progressive GBM and a dire prognosis. […] The primary endpoint of this portion of the study is to determine a modernized dosing regimen for advancement to registration-directed clinical trials. […] In this design, it is not possible to perform a rigorous assessment of patient benefit due to slowed tumor growth. Tumor volume is assessed during the study based on RANO criteria.
Open-label, single-arm Phase I/II dose-escalation study in patients with histologically-confirmed initial diagnosis of primary WHO Grade IV malignant glioma (glioblastoma). […] The study utilizes a 3+3 dose-escalation design. […] The RANO (Response Assessment in Neuro-Oncology) criteria divide responses into four general categories: complete response, partial response, stable disease, and regression.

[5] = system: cancer stem cells (BT74, GBM4 and GBM8); settings: BT74, GBM4 and GBM8, neurosphere growth assays; cited from earlier work
[6] = Plasma pharmacokinetics in brain tumor patients after IV infusion (WinNonlin non-compartmental analysis); format: in vivo, human; settings: for dose dependence of systemic exposure: dose escalation in patients
Method: Plasma drug concentration analysis data were analyzed using WinNonlin®, version 2.1A software (Pharsight Inc., Mountain View, Calif.) and Microsoft Office Excel 2007. Pharmacokinetic analysis was conducted by Dr. Sarath Kanekal, Ph.D. Use of MS Excel was limited to receipt of raw data, transfer into WinNonlin and generation of tables (Mean and SD) and graphs for the report.
The starting dose for Cohort #1 was 1.5 mg/m^2 IV daily×3 every 21 days. Cohorts 2 and 3 received DAG at doses of 3.0 and 5.0 mg/m^2 IV daily×3 every 21 days, respectively; cohort 4 received 10 mg/m^2. Dose escalation beyond 10 mg/m^2, up to 40 mg/m^2 IV daily×3 every 21 days is planned in the ongoing trial. Sample collection was on Day 1 at each dose level at the following time points: pre-dose, and 0.25, 0.5, 1, 2, 4, 6 h 15±5 minutes, 30±5 minutes, 60±10 minutes, 120±10 minutes, 240±15 minutes, and 360±15 minutes after the end of the IV study drug administration and immediately prior to Cycle 1, Day 2 of dosing. Drug concentration data was received from at least 3 patients for cohorts 1, 2 and 3, but only from 2 patients in cohort 4.
For the purposes of this interim analysis a fixed constant infusion time of 30 minutes and nominal collection time intervals were used for all patients. […] For the final PK analysis individual patient infusion time and exact collection time are used.
Pharmacokinetic analyses were performed on the plasma concentration versus time data using WinNonlin (Ver 2.1A) via non-compartmental analysis (NCA). A model for constant infusion (WinNonlin Model #202) was used for the analyses. Uniform weighting was used for all data. AUCall was calculated by the linear trapezoid rule and t1/2 of lambda z was used for estimating the terminal half-life. The last 2 or 3 concentrations above LLOQ were used for calculating lambda z. For clearance (CL) and Volume of Distribution (Vz), observed CL and observed Vz values outputted by WinNonlin are reported here. All plasma concentrations measurements reported as below the limit of quantitation (BLQ) was set equal to zero, and those reported as NS (no sample), if any, were left blank and treated as missing. Mean concentration and WinNonlin derived parameters are presented with standard deviation.

[7] = human, in vivo
Excerpt: as §1
Open-label, single-arm Phase I/II dose-escalation study in patients with histologically-confirmed initial diagnosis of primary WHO Grade IV malignant glioma (glioblastoma). […] The study utilizes a 3+3 dose-escalation design.

[8] = system: normal human neural stem cells; settings: neurosphere growth assays; cited from earlier work
[9] = biological target: glycogen synthase kinase-3β (GSK-3β) (Homo sapiens, UniProt P49841); settings: cited from earlier work
glycogen synthase kinase-3β (GSK-3β), sequence (P49841 whole entry, species assumed): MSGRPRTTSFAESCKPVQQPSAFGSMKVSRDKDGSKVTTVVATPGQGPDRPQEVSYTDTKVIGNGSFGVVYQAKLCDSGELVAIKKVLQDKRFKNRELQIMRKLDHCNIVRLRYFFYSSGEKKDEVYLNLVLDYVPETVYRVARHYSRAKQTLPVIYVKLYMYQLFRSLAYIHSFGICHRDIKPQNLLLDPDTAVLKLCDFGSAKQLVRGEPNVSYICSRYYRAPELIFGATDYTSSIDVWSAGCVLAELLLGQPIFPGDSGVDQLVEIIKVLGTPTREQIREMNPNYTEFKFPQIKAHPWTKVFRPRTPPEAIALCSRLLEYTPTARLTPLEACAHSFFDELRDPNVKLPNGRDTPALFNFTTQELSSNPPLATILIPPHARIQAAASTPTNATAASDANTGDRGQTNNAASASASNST

## O=NN(CCCl)C(=O)NCCCl [Carmustine]
GBM; GBM, historical data
  Median O.S. (XRT + Chemo): 40-50 weeks
GBM; human, in vivo
  Nadir: 21 to 35 days

## O[C@H]([C@H](O)[C@@H]1CO1)[C@H]1CO1 [dianhydrogalactitol]
[1]
  inhibition of tumor (cell) growth compared with TMZ: better than TMZ
[2]
  Tumor Response, Overall: 17%
  Tumor Response, type (number of patients): SD (1)
[3]; 3 mg/kg i.p. 3 times/week x 3 weeks
  median survival time: 54 days
[3]; 4 mg/kg i.p. 3 times/week x 3 weeks
  median survival time: 72 days
[3]; 5 mg/kg i.p., 4 doses only
  median survival time: 57 days
[4]; 30 mg/m^2, after 1 cycle, one of two patients
  tumor response in cohort 6: exhibited stable disease
[4]; GBM patients, n = 8
  Tumor Response, Overall: 25%
  Tumor Response, type (number of patients): PR (1); SD
[4]; Patient #26, T=0 vs T=64 days, after two cycles
  MRI scans, abnormal enhancement: Thick confluent regions of abnormal enhancement have diminished
[4]; early cohorts, Example 1
  patients exhibiting a response (stable disease or partial response): Two patients exhibiting a response
[5]
  inhibition of growth of cancer stem cells: 80-100%
GBM; GBM, historical data
  Recovery: Within 7-8 days
GBM; human, in vivo, iv
  efficacy in combination with radiation versus radiation alone: superior to radiation alone
GBM; human, in vivo
  DLT: Hematologic
  Median O.S. (XRT + Chemo): 67 weeks
  Nadir: 18 to 21 days
  Other Severe Toxicities Reported (>2%): None
[6]; 10 mg/m^2
  average Cmax: < 0.2 µg/mL
[6]; 20 mg/m^2, average
  Cmax: 0.18 µg/mL
[6]; Cohort 1, 1.5 mg/m^2
  AUC: 0.0189 µg·h/mL
  Cmax: 0.0165 µg/mL
  Tmax: 15 min
  t-½: 2.02 h
[6]; Cohort 2, 3 mg/m^2
  AUC: 0.0485 µg·h/mL
  Cmax: 0.0464 µg/mL
  Tmax: 15 min
  t-½: 0.83 h
[6]; Cohort 3, 5 mg/m^2
  AUC: 0.108 µg·h/mL
  Cmax: 0.0805 µg/mL
  Tmax: 15 min
  t-½: 1.27 h
[6]; Cohort 4, 10 mg/m^2
  AUC: 0.1917 µg·h/mL
  Cmax: 0.172 µg/mL
  Tmax: 15 min
  t-½: 1.19 h
[6]; all dose levels 1.5-10 mg/m^2
  time of peak concentration after initiation of the intravenous infusion: 0.25
[6]; cohorts 1-4
  time for plasma concentrations to return to near baseline after dosing: ≤ 8 h
[6]
  dose dependence of systemic exposure: dose-dependent linear systemic exposure
[6]; listed as DAG
  dose dependence of systemic exposure: more than dose proportional increase in exposure
[6]; listed as Dianhydrogalactitol
  dose dependence of systemic exposure: dose-dependent increase in exposure
[6]; listed as VAL-083
  dose dependence of systemic exposure: dose-dependent linear systemic exposure
[6]; patients, IV
  plasma half-life: 60 to 120 min
  plasma terminal half-life: 60 to 120 min
[7]
  maximum tolerated dose (MTD), as 33 day cycle cumulative dose: > 120 mg/m^2
[8]
  effect on normal human neural stem cells: minimal effect

## CN1C(=O)/C(=C2/C(=O)Nc3ccccc32)c2ccccc21 [meisoindigo]
[9]
  concentration for inhibition of GSK-3β: 5 to 50 nM

## Cn1nnc2c(C(N)=O)ncn2c1=O [temozolomide]
[3]; TMZ 30 mg/kg
  day of termination at the end of the study: 102 days
GBM; GBM, historical data
  DLT: Hematologic
  Nadir: 21 to 28 days
  Recovery: Within 14 days
